# Results taken from EP0335545B2, “Pharmaceutical formulations for parenteral use” (UNIVERSITY OF FLORIDA, priority 1988, dated 1989).
# Key:
# physchem [1] = test: physchem
# Procedure: For comparison, the solubilities of the drugs in water were also determined.
# • Wavelength: 245 nm • Column: Waters µBondapak CN, 3.9 mm (id.) x 30 cm • Mobile phase: acetonitrile, acetic acid, water (60:1:39) containing 0.1% 1-hexasulfonic acid, sodium salt • Flow rate: 2.00 mL/min.
# • Wavelength: 263 nm • Column: ASI C18, 10 µm, 3.9 mm (i.d.) x 30 cm • Mobile phase: acetonitrile, water (55:45) • Flow rate: 1.00 mL/min.
# • Wavelength: 241 nm • Column: Waters µBondapak CN, 3.9 mm (i.d.) x 30 cm • Mobile phase: acetonitrile, water (6:4) • Flow rate: 2.00 mL/min.
# • Wavelength: 280 nm • Column: ASI C18, 10 µm, 3.9 mm (i.d.) x 30 cm • Mobile phase: acetonitrile, water (55:45) • Flow rate: 2.00 mL/min.
# • Wavelength: 248 nm • Column: Fisher Resolvex C18, 4.6 mm (i.d.) x 25 cm • Mobile phase: acetonitrile, water (6:4) • Flow rate: 1.50 mL/min.
# • Wavelength: 248 nm • Column: Fisher Resolvex C18, 4.6 mm (i.d.) x 25 cm • Mobile phase: acetonitrile, water (7:3) • Flow rate: 2.00 mL/min.
# • Wavelength: 253 nm • Column: Waters µBondapak CN, 3.9 mm (i.d.) x 30 cm • Mobile phase: acetonitrile, […], water (60:1:39) containing 0.1% 1-hexanesulfonic acid, sodium salt • Flow rate: 2.00 mL/min.
# • Wavelength 308 nm • Column: Fisher Resolvex C18, 4.6 mm (i.d.) x 25 cm • Mobile phase: methanol, acetic acid, water (50:1:49) containing 0.1% 1-octanesulfonic acid, sodium salt • Flow rate: 2.00 mL/min.
# • Wavelength: 240 nm • Column: Fisher Resolvex C18, 4.6 mm (i.d.) x 25 cm • Mobile phase: acetonitrile, water (6:4) • Flow rate: 1.50 mL/min.
# • Wavelength: 240 nm • Column: Fisher Resolvex C18, 4.6 mm (i.d.) x 25 cm Mobile phase: acetonitrile, water (7:3) • Flow rate: 2.00 mL/min.
# • Wavelength: 241 nm • Column: Fisher Resolvex C18, 4.6 mm (i.d.) x 25 cm • Mobile phase: acetonitrile, water (7:3) • Flow rate: 2.00 mL/min.
# • Wavelength: 230 nm • Column: Waters µBondapak CN, 3.9 mm (i.d.) x 30 cm • Mobile phase: acetonitrile, water (35:65) • Flow rate: 2.00 mL/min.
# • Wavelength: 258 nm • Column: Fisher Resolvex C18, 4.6 mm (i.d.) x 25 cm • Mobile phase: acetonitrile, water (55:45) • Flow rate: 2.00 mL/min.
# • Wavelength: 325 nm • Column: Waters µBondapak C18, 10 µm, 3.9 mm (i.d.) x 30 cm • Mobile phase: acetonitrile, water (55:45) • Flow rate: 1.00 mL/min.
# [2] = Maximum concentrations of selected CDS in varying concentrations of selected cyclodextrins; format: physicochemical
# Procedure: In further testing, maximum concentrations of selected CDS in varying concentrations of selected cyclodextrins were determined. The concentration of E2-CDS (mg/mL) was as follows: […]
# [3] = Preparation of solid freeze-dried HPCD complexes: degree of incorporation; format: physicochemical; conditions: freeze-dried complex from 50% w/w HPCD (ASDS 5.1)
# Procedure: An excess of E2-CDS was added and the solution then was purged with helium. The resulting suspension was then sonicated for 30 minutes, filtered through a glass filter (ASTM 10-15M, Pyrex No. 36060) and freeze-dried overnight. Best results were obtained by hard-freezing the aqueous solution of the E2-CDS/HPCD complex for at least 10 hours before lyophilization. The degree of complex formation was determined by dissolving a small amount of the dry complex in methanol and then analyzing by high pressure liquid chromatography (HPLC).
# An excess of E2-CDS or other CDS was added to a 50% w/w solution of HPCD. The suspension was sonicated for 30 minutes, filtered through 0.45 µm PVDF membranes and freeze-dried. The degree of incorporation was determined either spectrophotometrically or by HPLC. In some cases, the effect of solubilizing agents on the degree of incorporation was examined. This involved adding small amounts of polyoxyethylene 20 cetyl ether (Brij), polyoxyethylene sorbitan monooleate (Tween 80) or ethanol to the aqueous solution prior to lyophilization.
# The retention time was 5.2 min. Other compounds were assayed spectrophotometrically.
# The solution was degassed and the suspension was sonicated for 30 minutes, after which it was filtered and the filtrate was lyophilized. The dried filtrate contained 65.6 mg testosterone propionate or 29.6 mg T-CDS1 per gram of cyclodextrin complex. Compounds were analyzed for decomposition by thin-layer chromatography and ultraviolet absorption.
# [4] = Solubilizing effect of a 50% w/w solution of HPCD on steroids and CDS; conditions: 50% w/w aqueous hpcd
# Procedure: An excess of E2-CDS was sonicated with an aqueous solution of the appropriate solubilizing agent for 30 minutes. The suspension was then centrifuged, filtered through 0.45 µm polyvinylidene difluoride (Millex-HV4, Millipore®) membranes and analyzed by HPLC. […] An estimation of the bulk equilibrium constant was obtained by correlating the millimolarity of E2-CDS solubilized and the millimolarity of the cyclodextrin added. This latter value was calculated using the average molecular weight of the isomeric mixture determined by mass spectroscopy. The solubilizing effect of a 50% w/w solution of HPCD was also examined for a series of steroids and dihydropyridines (CDS). These studies were carried out in a similar manner to those previously described.
# For the CDS, the wavelength monitored was 360 nm while for estrogen 220 nm was used.
# Separation was achieved on an Analytical Sciences, Inc. (ASI) 10 µm particle size, C18 reversed phase 30 cm x 3.9 mm i.d. analytical column. The flow rate was 1 mL/min, the compounds were detected at 360 nm and in all determinations the temperature was ambient. […] For the GABA-CDS1, a mobile phase consisting of 50:1:1:48 of the same components was required. […] Other compounds were assayed spectrophotometrically.
# physchem [5] = test: physchem; remark: listed apart in the source
# Procedure: After equilibration in a 30.0±0.2°C water bath in the dark for up to 72 hours, aliquots of the mixtures were filtered through 0.45 Mm membrane filters, diluted and the drug concentration determined by HPLC or UV methods.
compound,measurement,setting,value
CC1=C(/C=C/C(C)=C/C=C/C(C)=C/CO)C(C)(C)CCC1 [All-trans-Retinol],Increase in Solubility (HPCD/water),physchem [1],"∼4,600"
same,solubility,physchem [1]; 50% w/w hpcd,4600 µg/mL
same,solubility,physchem [1]; water,1 µg/mL
"17β-{[(1-methyl-1,4-dihydropyridin-3-yl)carbonyl]oxy}-19-norpregn-4-en-20-yn-3-one [norethindrone-CDS]",concentration of the norethindrone-CDS,[2]; 40% hpcd,7.13 mg/g
same,concentration of the norethindrone-CDS,[2]; 40% hpgcd,15.9 mg/g
same,Amount of Drug in Dry Complex,[3],0.6 mg/g
O=C1NC(=O)C(c2ccccc2)(c2ccccc2)N1 [Phenytoin],Increase in Solubility (HPCD/water),physchem [1],∼450
same,solubility,physchem [1]; 50% w/w hpcd,9300 µg/mL
same,solubility,physchem [1]; water,20 µg/mL
CCC(=O)O[C@H]1CC[C@H]2[C@@H]3CCC4=CC(=O)CC[C@]4(C)[C@H]3CC[C@]12C [Testosterone 17-Propionate],solubility,[4],38000 µg/mL
same,Amount of Drug in Dry Complex,[3],65.6 mg/g
C[C@]12CC[C@@H]3c4ccc(O)cc4CC[C@H]3[C@@H]1C[C@@H](O)[C@@H]2O [Estriol],solubility,[4],40000 µg/mL
CN1CCN=C(c2ccccc2)c2cc(Cl)ccc21 [Medazepam],solubility,"physchem [1]; 50% w/w hpcd, pH 7.5",8300 µg/mL
same,solubility,physchem [1]; water,10 µg/mL
COc1ccc2c(c1)CC[C@@H]1[C@@H]2CC[C@]2(C)[C@@H](O)CC[C@@H]12 [Estradiol 3-Methyl Ether],solubility,[4],30000 µg/mL
C#C[C@]1(OC(C)=O)CC[C@H]2[C@@H]3CCC4=CC(=O)CC[C@@H]4[C@H]3CC[C@@]21C [Norethindrone acetate],Increase in Solubility (HPCD/water),physchem [1],"∼97,500"
same,solubility,physchem [1]; 25% w/v hpcd,9410 µg/mL
same,solubility,physchem [1]; 50% w/w hpcd,19500 µg/mL
same,solubility,physchem [1]; water,0.2 µg/mL
O=C(O)CCCc1ccc(N(CCCl)CCCl)cc1 [Chlorambucil],solubility at 3 h,physchem [5]; 1% aqueous hpcd,740 µg/mL
same,solubility at 84 h,physchem [5]; 1% aqueous hpcd,550 µg/mL
same,solubility at 3 h,physchem [5]; 2% aqueous hpcd,1480 µg/mL
same,solubility at 84 h,physchem [5]; 2% aqueous hpcd,840 µg/mL
same,solubility at 3 h,physchem [5]; 3% aqueous hpcd,2370 µg/mL
same,solubility at 84 h,physchem [5]; 3% aqueous hpcd,680 µg/mL
same,solubility at 3 h,physchem [5]; 4% aqueous hpcd,3220 µg/mL
same,solubility at 84 h,physchem [5]; 4% aqueous hpcd,1500 µg/mL
same,solubility at 3 h,physchem [5]; 5% aqueous hpcd,1460 µg/mL
same,solubility at 84 h,physchem [5]; 5% aqueous hpcd,1800 µg/mL
same,solubility at 84 h,physchem [5]; 7% aqueous hpcd,3760 µg/mL
same,solubility at 3 h,physchem [5]; 10% aqueous hpcd,4960 µg/mL
same,solubility at 84 h,physchem [5]; 10% aqueous hpcd,5200 µg/mL
same,solubility at 3 h,physchem [5]; 15% aqueous hpcd,6360 µg/mL
same,solubility at 84 h,physchem [5]; 15% aqueous hpcd,7600 µg/mL
same,solubility,physchem [5]; 20% aqueous hpcd,13100 µg/mL
same,solubility at 3 h,physchem [5]; 20% aqueous hpcd,8490 µg/mL
same,solubility at 84 h,physchem [5]; 20% aqueous hpcd,13100 µg/mL
same,solubility,physchem [5]; 25% aqueous hpcd,18400 µg/mL
same,solubility at 3 h,physchem [5]; 25% aqueous hpcd,8850 µg/mL
same,solubility at 84 h,physchem [5]; 25% aqueous hpcd,18400 µg/mL
same,solubility at 4 h,physchem [5]; 50% aqueous hpcd,~30000 µg/mL
same,solubility at 3 h,physchem [5]; aqueous 7% hpcd,2710 µg/mL
same,solubility,physchem [5]; water,410 µg/mL
same,solubility at 3 h,physchem [5]; water (0% hpcd),10 µg/mL
same,solubility at 84 h,physchem [5]; water (0% hpcd),410 µg/mL
"1-methyl-3-{[2-(9-guanylmethoxy)ethoxy]carbonyl}-1,4-dihydropyridine [ACV-CDS]",Amount of Drug in Dry Complex,[3],25 mg/g
